Measurements as given in patent US7064120B2, “Tricyclic pyridyl carboxamides and derivatives thereof tocolytic oxytocin receptor antagonists” (Wyeth, priority 2001, dated 2006).

Biological target: T1, human oxytocin receptor (Homo sapiens, UniProt P30559)
T1 construct: host or cells: CHO cells, stably transfected (pcDNA3.1 vector)
T1 sequence (P30559 1-389): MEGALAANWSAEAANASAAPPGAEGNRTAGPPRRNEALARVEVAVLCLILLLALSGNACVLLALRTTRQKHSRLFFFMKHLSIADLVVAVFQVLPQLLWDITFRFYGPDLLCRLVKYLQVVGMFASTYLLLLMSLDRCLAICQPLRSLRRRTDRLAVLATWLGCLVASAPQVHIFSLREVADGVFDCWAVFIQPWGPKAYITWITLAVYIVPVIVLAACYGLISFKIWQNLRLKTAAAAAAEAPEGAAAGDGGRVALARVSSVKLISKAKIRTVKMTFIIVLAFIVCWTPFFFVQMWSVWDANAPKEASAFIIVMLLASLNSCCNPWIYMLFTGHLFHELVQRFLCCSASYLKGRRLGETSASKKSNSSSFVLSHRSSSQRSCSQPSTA
Assay: Oxytocin binding in CHO cell membranes expressing human oxytocin receptors ([3H]oxytocin radioligand binding)
Details: for inhibition at 0.1 µM: 100 nM, read-out: OT % inhibition @ 100 nM; for IC50: value in parentheses, read-out: OT (IC50)
Method in brief: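 CHO membranes expressing human oxytocin receptor (25–50 μg protein/well) incubated 60 min at room temperature with [3H]oxytocin in Tris-HCl pH 7.4 buffer with MgCl2, BSA and protease inhibitors. Filtration and scintillation counting; reported as % inhibition at a stated concentration or nM IC50.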

Row | inhibition at 0.1 µM | IC50 | Compound
1 | 49% |  | Cc1ccccc1-c1ccc(C(=O)N2Cc3ccc(C(=O)N4CCN(c5ccccn5)CC4)n3Cc3ccccc32)cc1 [Example 79, {10-[(2′-Methyl-[1,1′-biphenyl]-4-yl)carbonyl]-10,11-dihydro-5H-pyrrolo[2,1-c][1,4]benzodiazepin-3-yl}[4-(2-pyridinyl)-1-piperazinyl]methanone]
2 | 50% |  | COc1cc(C(=O)N2Cc3ccc(C(=O)N4CCN(c5ccccn5)CC4)n3Cc3ccccc32)ccc1-c1ccccc1C [Example 80, {10-[(2-Methoxy-2′-methyl-[1,1′-biphenyl]-4-yl)carbonyl]-10,11-dihydro-5H-pyrrolo[2,1-c][1,4]benzodiazepin-3-yl}[4-(2-pyridinyl)-1-piperazinyl]methanone]
3 | 50% |  | COc1cc(-c2ccccc2C)c(Cl)cc1C(=O)N1Cc2ccc(C(=O)N3CCN(c4ccccn4)CC3)n2Cc2ccccc21 [Example 81, {10-[(6-Chloro-3-methoxy-2′-methyl-[1,1′-biphenyl]-4-yl)carbonyl]-10,11-dihydro-5H-pyrrolo[2,1-c][1,4]benzodiazepin-3-yl}[4-(2-pyridinyl)-1-piperazinyl]methanone]
4 | 27% |  | COc1cccc(-c2cc(OC)c(C(=O)N3Cc4ccc(C(=O)N5CCN(c6ccccn6)CC5)n4Cc4ccccc43)cc2Cl)c1 [Example 82, {10-[(6-Chloro-3,3′-dimethoxy-[1,1′-biphenyl]-4-yl)carbonyl]-10,11-dihydro-5H-pyrrolo[2,1-c][1,4]benzodiazepin-3-yl}[4-(2-pyridinyl)-1-piperazinyl]methanone]
5 | 46% |  | COc1ccccc1-c1ccc(C(=O)N2Cc3ccc(C(=O)N4CCN(c5ccccn5)CC4)n3Cc3ccccc32)cc1OC [Example 84, {10-[(2,2′-Dimethoxy-[1,1′-biphenyl]-4-yl)carbonyl]-10,11-dihydro-5H-pyrrolo[2,1-c][1,4]benzodiazepin-3-yl}[4-(2-pyridinyl)-1-piperazinyl]methanone]
6 | 32% |  | COc1cccc(-c2ccc(C(=O)N3Cc4ccc(C(=O)N5CCN(c6ccccn6)CC5)n4Cc4ccccc43)cc2OC)c1 [Example 85, {10-[(2,3′-Dimethoxy-[1,1′-biphenyl]-4-yl)carbonyl]-10,11-dihydro-5H-pyrrolo[2,1-c][1,4]benzodiazepin-3-yl}[4-(2-pyridinyl)-1-piperazinyl]methanone]
7 | 21% |  | O=C(c1ccc2n1Cc1ccccc1N(C(=O)c1ccc(-c3cccc4ccccc34)cc1Cl)C2)N1CCN(c2ccccn2)CC1 [Example 86, {10-[2-Chloro-4-(naphthalen-1-yl)benzoyl]-10,11-dihydro-5H-pyrrolo[2,1-c][1,4]benzodiazepin-3-yl}[4-(2-pyridinyl)-1-piperazinyl]methanone]
8 | 52% |  | Cc1cc(C(=O)N2Cc3ccc(C(=O)N4CCN(c5ccccn5)CC4)n3Cc3ccccc32)ccc1-c1ccccc1C(F)(F)F [Example 87, (10-{[2-Methyl-2′-trifluoromethyl-[1,1′-biphenyl]-4-yl]carbonyl}-10,11-dihydro-5H-pyrrolo[2,1-c][1,4]benzodiazepin-3-yl)[4-(2-pyridinyl)-1-piperazinyl]methanone]
9 | 44% |  | COc1ccccc1-c1ccc(C(=O)N2Cc3ccc(C(=O)NCc4ccncc4)n3Cc3ccccc32)cc1C [Example 88, 10-[(2′-Methoxy-2-methyl-[1,1′-biphenyl]-4-yl)carbonyl]-N-(4-pyridinylmethyl)-10,11-dihydro-5H-pyrrolo[2,1-c][1,4]benzodiazepine-3-carboxamide]
10 | 67% |  | Cc1ccccc1-c1ccc(C(=O)N2Cc3ccc(C(=O)NCc4ccncc4)n3Cc3ccccc32)cc1C [Example 89, 10-[(2,2′-Dimethyl-[1,1′-biphenyl]-4-yl)carbonyl]-N-(4-pyridinylmethyl)-10,11-dihydro-5H-pyrrolo[2,1-c][1,4]benzodiazepine-3-carboxamide]
11 | 44% |  | COc1cccc(-c2ccc(C(=O)N3Cc4ccc(C(=O)NCc5ccncc5)n4Cc4ccccc43)cc2C)c1 [Example 90, 10-[(3′-Methoxy-2-methyl-[1,1′-biphenyl]-4-yl)carbonyl]-N-(4-pyridinylmethyl)-10,11-dihydro-5H-pyrrolo[2,1-c][1,4]benzodiazepine-3-carboxamide]
12 | 44% |  | COc1ccccc1-c1ccc(C(=O)N2Cc3ccc(C(=O)NCc4ccncc4)n3Cc3ccccc32)cc1 [Example 91, 10-[(2′-Methoxy-[1,1′-biphenyl]-4-yl)carbonyl]-N-(4-pyridinylmethyl)-10,11-dihydro-5H-pyrrolo[2,1-c][1,4]benzodiazepine-3-carboxamide]
13 | 30% |  | Cc1ccccc1-c1ccc(C(=O)N2Cc3ccc(C(=O)NCc4ccncc4)n3Cc3ccccc32)cc1 [Example 92, 10-[(2′-Methyl-[1,1′-biphenyl]-4-yl)carbonyl]-N-(4-pyridinylmethyl)-10,11-dihydro-5H-pyrrolo[2,1-c][1,4]benzodiazepine-3-carboxamide]
14 | 69% |  | COc1cc(C(=O)N2Cc3ccc(C(=O)NCc4ccncc4)n3Cc3ccccc32)ccc1-c1ccccc1C [Example 93, 10-[(2-Methoxy-2′-methyl-[1,1′-biphenyl]-4-yl)carbonyl]-N-(4-pyridinylmethyl)-10,11-dihydro-5H-pyrrolo[2,1-c][1,4]benzodiazepine-3-carboxamide]
15 | 37% |  | COc1cc(-c2ccccc2C)c(Cl)cc1C(=O)N1Cc2ccc(C(=O)NCc3ccncc3)n2Cc2ccccc21 [Example 94, 10-[(6-Chloro-3-methoxy-2′-methyl-[1,1′-biphenyl]-4-yl)carbonyl]-N-(4-pyridinylmethyl)-10,11-dihydro-5H-pyrrolo[2,1-c][1,4]benzodiazepine-3-carboxamide]
16 | 7% |  | COc1cccc(-c2cc(OC)c(C(=O)N3Cc4ccc(C(=O)NCc5ccncc5)n4Cc4ccccc43)cc2Cl)c1 [Example 95, 10-[(6-Chloro-3,3′-dimethoxy-[1,1′-biphenyl]-4-yl)carbonyl]-N-(4-pyridinylmethyl)-10,11-dihydro-5H-pyrrolo[2,1-c][1,4]benzodiazepine-3-carboxamide]
17 | 28% |  | COc1cc(C(=O)N2Cc3ccc(C(=O)NCc4ccncc4)n3Cc3ccccc32)ccc1-c1cccc2ccccc12 [Example 96, 10-[3-Methoxy-4-(naphthalen-1-yl)benzoyl]-N-(4-pyridinylmethyl)-10,11-dihydro-5H-pyrrolo[2,1-c][1,4]benzodiazepine-3-carboxamide]
18 | 36% |  | COc1ccccc1-c1ccc(C(=O)N2Cc3ccc(C(=O)NCc4ccncc4)n3Cc3ccccc32)cc1OC [Example 97, 10-[(2,2′-Dimethoxy-[1,1′-biphenyl]-4-yl)carbonyl]-N-(4-pyridinylmethyl)-10,11-dihydro-5H-pyrrolo[2,1-c][1,4]benzodiazepine-3-carboxamide]
19 | 13% |  | O=C(NCc1ccncc1)c1ccc2n1Cc1ccccc1N(C(=O)c1ccc(-c3cccc4ccccc34)cc1Cl)C2 [Example 99, 10-[2-Chloro-4-(naphthalen-1-yl)benzoyl]-N-(4-pyridinylmethyl)-10,11-dihydro-5H-pyrrolo[2,1-c][1,4]benzodiazepine-3-carboxamide]
20 | 24% |  | Cc1cc(C(=O)N2Cc3ccc(C(=O)NCc4ccncc4)n3Cc3ccccc32)ccc1-c1ccccc1C(F)(F)F [Example 100, 10-{[2-Methyl-2′-trifluoromethyl-[1,1′-biphenyl]-4-yl]carbonyl}-N-(4-pyridinylmethyl)-10,11-dihydro-5H-pyrrolo[2,1-c][1,4]benzodiazepine-3-carboxamide]
21 |  | 2.23 nM | COc1ccccc1-c1ccc(C(=O)N2Cc3ccc(C(=O)N(C)Cc4cccnc4)n3Cc3ccccc32)cc1C [Example 101, 10-[(2′-Methoxy-2-methyl-[1,1′-biphenyl]-4-yl)carbonyl]-N-methyl-N-(3-pyridinylmethyl)-10,11-dihydro-5H-pyrrolo[2,1-c][1,4]benzodiazepine-3-carboxamide]
22 |  | 4.14 nM | COc1cccc(-c2ccc(C(=O)N3Cc4ccc(C(=O)N(C)Cc5cccnc5)n4Cc4ccccc43)cc2C)c1 [Example 102, 10-[(3′-Methoxy-2-methyl-[1,1′-biphenyl]4-yl)carbonyl]-N-methyl-N-(3-pyridinyImethyl)-10,11-dihydro-5H-pyrrolo[2,1-c][1,4]benzodiazepine-3-carboxamide]
23 |  | 6.25 nM | COc1ccccc1-c1ccc(C(=O)N2Cc3ccc(C(=O)N(C)Cc4cccnc4)n3Cc3ccccc32)cc1OC [Example 103, 10-[(2,2′-Dimethoxy-[1,1′-biphenyl]-4-yl)carbonyl]-N-methyl-N-(3-pyridinylmethyl)-10,11-dihydro-5H-pyrrolo[2,1-c][1,4]benzodiazepine-3-carboxamide]
24 | 99% |  | COc1ccccc1-c1ccc(C(=O)N2Cc3ccc(C(=O)N(C)Cc4cccnc4)n3Cc3ccccc32)cc1 [Example 104, 10-[(2′-Methoxy-[1,1′-biphenyl]-4-yl)carbonyl]-N-methyl-N-(3-pyridinylmethyl)-10,11-dihydro-5H-pyrrolo[2,1-c][1,4]benzodiazepine-3-carboxamide]
25 | -9% |  | Cc1ccccc1-c1ccc(C(=O)N2Cc3ccc(C(=O)N(C)Cc4cccnc4)n3Cc3ccccc32)cc1 [Example 105, N-Methyl-10-[(2′-methyl-[1,1′-biphenyl]-4-yl)carbonyl]-N-(3-pyridinylmethyl)-10,11-dihydro-5H-pyrrolo[2,1-c][1,4]benzodiazepine-3-carboxamide]
